Results reported in article PMC10804683, “Identification of the pyridoxal 5′‐phosphate allosteric site in human pyridox(am)ine 5′‐phosphate oxidase” (Protein Science : A Publication of the Protein Society, 2024).
Where a chain is given by its changes, count along the chain named.

What was measured:
[1] = biological target: T1, human PNPO F48A/E50L/H248N/R258L variant (holo-enzyme) (Homo sapiens, UniProt Q9NVS9, E50L/F48A/H248N/R258L); assay: PLP binding by FMN fluorescence changes, holo quadruple variant; details: 100 nM enzyme, read-out: PLP binding KD^FLUO
T1 construct: a main form corresponding to the entire protein; made in house; host or cells: E. coli BL21(DE3)
T1 sequence (Q9NVS9 1-261 F48A/E50L/H248N/R258L): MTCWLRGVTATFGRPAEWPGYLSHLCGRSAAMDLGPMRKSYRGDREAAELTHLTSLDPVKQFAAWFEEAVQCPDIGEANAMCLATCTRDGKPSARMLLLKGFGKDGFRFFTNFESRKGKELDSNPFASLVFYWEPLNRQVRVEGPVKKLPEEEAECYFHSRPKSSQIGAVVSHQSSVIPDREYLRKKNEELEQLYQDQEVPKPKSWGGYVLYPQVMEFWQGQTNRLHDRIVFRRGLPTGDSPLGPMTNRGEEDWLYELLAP
Text: PLP binding to PNPO can be detected and quantitatively measured using differential scanning fluorimetry (DSF) and also by measuring FMN fluorescence changes. We had previously attributed DSF changes to PLP binding at the active site, while FMN fluorescence changes were attributed to PLP binding at the allosteric site (Barile et al., [2019], [2020]). Previous experiments carried out with the PNPO R161C variant, affecting a residue that is essential for substrate binding and catalysis (and therefore also for PLP binding at the active site), confirms that DSF measurements only report PLP binding at the active site (Barile et al., [2021]; Table 1). […] We expected to observe no FMN fluorescence changes upon titration of the variants with PLP. However, this was not the case, and the dissociation constant values obtained by observing the FMN fluorescence emission were only up to threefold larger in the variants with respect to wild type PNPO (Figure 3). […] To check the second possibility, we measured intrinsic fluorescence changes of wild type and variant apo‐forms (i.e., without FMN) upon PLP titration. […]
Analyses of PLP binding, based on FMN fluorescence increase observed upon binding of PLP to PNPO, were performed as described in Barile et al. ([2020]). […] Emission spectra were recorded from […], with excitation and emission slits set at 3 and 5 nm, respectively. […]

human PNPO wild type = biological target: T2, human PNPO wild type (Homo sapiens, UniProt Q9NVS9); assay: PLP inhibition kinetics of PNP oxidation, wild type; format: biochemical; design: a main form corresponding to the entire protein; made in house; host or cells: E. coli BL21(DE3); details: Na-HEPES pH 7.6, 2 μM enzyme, PLP 0–16 μM
T2 sequence (Q9NVS9 1-261): T1 sequence (Q9NVS9 1-261 F48A/E50L/H248N/R258L) with A48F, L50E, N248H, L258R
Procedure: This is a general inhibition mechanism that takes into account the possibility of PLP binding to both the active and allosteric sites. PLP binding at the active site gives a complete, competitive inhibition, whereas PLP binding at the allosteric site yields a substrate‐enzyme‐PLP ternary complex that is still catalytically active, although k CAT is reduced by a coefficient whose value is around 0.15. A thorough inhibition kinetic characterization was carried out with the wild type, F48A, F48A/E50L/R258L, and F48A/E50L/H248N/R258L PNPO forms, so as to evaluate the effect of the variations on the allosteric properties of the enzyme. The initial velocity of PNP conversion into PLP was measured in Na‐HEPES buffer (in which PLP is allowed to accumulate) by varying substrate concentration at different, fixed exogenous PLP concentrations, using 2 μM enzyme. A series of saturation curves were obtained that were used to fit the Michaelis–Menten equation (Figure 5), acquiring apparent V MAX and K M values as a function of PLP concentration. […]
FIGURE 5 Characterization of PLP inhibition. Upper panels: The initial velocity of the reaction was measured with 2 μM wild type (a), and the F48A (b), F48A/E50L/R258L (c), and F48A/E50L/H248N/R258L (d) PNPO variants, varying PNP concentration while keeping exogenous PLP fixed at different concentrations (0, 0.25, 0.5, 1, 2, 4, 8, and 16 μM). […]

Kd [1]: 2850 ± 250 nM
Compound: Cc1ncc(COP(=O)(O)O)c(C=O)c1O [PLP, pyridoxal 5′‐phosphate]
type of inhibition of PNP oxidation by PLP (human PNPO wild type): typical hyperbolic increase of 1/V MAX and the parabolic increase of K M/V MAX
